Results published in patent publication US20050096360A1, “Inhibitors of semicarbazide-sensitive amine oxidase (SSAO) and VAP-1 mediated adhesion useful for treatment of diseases” (priority 2003, published 2005).
Counter-ions that a name gives are not always drawn. Like-named read-outs stand apart in the source and are kept apart here.

Columns and labels:
recombinant human MAO-A = target: T1, recombinant human MAO-A (Homo sapiens, UniProt P21397); test: Inhibition of MAO-A activity, colorimetric; format: biochemical; conditions: for Specificity for SSAO vs. MAO-A: ratio IC50 MAO-A to IC50 SSAO
T1 construct: purchased BD Biosciences (MA, USA)
T1 sequence (P21397 1-527): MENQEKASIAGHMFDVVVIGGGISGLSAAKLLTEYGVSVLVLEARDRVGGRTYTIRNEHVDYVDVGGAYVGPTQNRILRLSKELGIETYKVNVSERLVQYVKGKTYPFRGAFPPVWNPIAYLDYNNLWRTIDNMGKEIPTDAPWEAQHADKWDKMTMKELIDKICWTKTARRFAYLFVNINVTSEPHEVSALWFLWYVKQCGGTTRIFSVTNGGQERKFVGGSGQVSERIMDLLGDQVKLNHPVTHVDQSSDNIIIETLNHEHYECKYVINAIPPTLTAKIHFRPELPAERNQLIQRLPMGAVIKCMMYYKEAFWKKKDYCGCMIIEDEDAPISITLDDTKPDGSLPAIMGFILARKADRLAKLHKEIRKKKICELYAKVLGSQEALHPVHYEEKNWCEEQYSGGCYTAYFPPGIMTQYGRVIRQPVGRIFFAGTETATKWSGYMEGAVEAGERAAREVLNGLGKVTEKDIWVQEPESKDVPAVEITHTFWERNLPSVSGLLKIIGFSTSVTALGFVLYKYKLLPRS
Description: The specificity of the different SSAO inhibitors was tested by determining their ability to inhibit MAO-A and MAO-B activities in vitro. Recombinant human MAO-A and human MAO-B enzymes were obtained from BD Biosciences (MA, USA). […] A pre-determined amount of inhibitor diluted in 0.2 M potassium phosphate buffer, pH 7.6, was added to each well, if required. […] Controls lacked inhibitor. The following agents were then added to a final reaction volume of 200 μl in 0.2 M potassium phosphate buffer, pH 7.6: 0.04 mg/ml of MAO-A or 0.07 mg/ml MAO-B enzyme, 15 μl of 10 mM tyramine substrate (for MAO-A), or 15 μl 100 mM benzylamine substrate (for MAO-B), and 50 μl of freshly made chromogenic solution (as above). The plates were incubated for 60 min at 37° C. The increase in absorbance, reflecting MAO activity, was measured at 490 nm using microplate spectrophotometer (Power Wave 40, Bio-Tek Inst.). Inhibition was presented as percent inhibition compared to control after correcting for background absorbance and IC50 values calculated using GraphPad Prism software.

[1] = Acute toxicity studies in mice; format: in vivo; conditions: female, C57B1/6, mouse, in vivo, Day 7 values
Description: (§1) Intraperitoneal (i.p.) and intravenous (i.v.) LD50 values for the compounds of Examples 8 and 10, as well as mofegiline, the allylamine compound described in Example 18, were determined in mice. Six-week old C57B1/6 female mice were divided in groups of five and administered a single i.p or i.v. injection of compound dissolved in PBS (10-100 mg/kg in 100 ul i.v.; 30-500 mg/kg in 200 ul i.p.). Control groups were administered the same volume of PBS i.p. or i.v. Appearance and overt behavior were noted daily, and body weight was measured before compound administration (Day 1) and on Days, 3, 5 and 7. After seven days, animals were euthanized and their liver, spleen and kidneys weighted.
(§2) Acute toxicity effects for mofegiline included tremors (40 mg/kg i.v.; 100 mg/kg i.p.) and clonic convulsions and labored breathing (100 mg/kg i.v.; 200 mg/kg i.p.). […] All deaths occurred within 24 hours after drug administration. […] Thus, there is no indication of the cause of death for any of the compounds tested.

C57B1/6 female mice = test: Acute toxicity studies in mice; format: in vivo; conditions: for acute toxicity effects observed: 100 mg/kg i.v.; for dose causing convulsions and labored breathing: i.p. (see Table 2)
Description: as §1, §2

[2] = system: carrageenan-induced paw edema in Sprague Dawley rats; test: Carrageenan-induced rat paw edema; format: in vivo; conditions: for paw swelling: 100 mg/kg i.p. 15 minutes prior to carrageenan, 60, 120, 180 min, p<0.05
Description: Female Sprague Dawley rats were used and compounds of the invention were injected i.p. at 100 mg/kg 15 minutes prior to carrageenan exposure. The control group was injected with an equal volume of vehicle (PBS). Edema in the paws was induced as previously described by injecting 50 μl of a 0.5% solution of carrageenan (Type IV Lambda, Sigma) in saline with a 27-G needle s.c. in the right foot pat. (See Whiteley P. E. and Dalrymple S. A. (1998) Models of inflammation: carrageenan-induced paw edema in the rat, in Current Protocols in Pharmacology. Enna S J, Williams M, Ferkany J W, Kenaki T, Porsolt R E and Sullivan J P, eds., pp 5.4.1-5.4.3, John Wiley & Sons, New York) The size of the tested foot of each animal was measured volumetrically, before induction of edema, and at 60, 120, and 180 min after carrageenan induction.
Briefly, SSAO inhibitors (30 mg/kg), indomethacin (3 mg/kg) and PBS were administered orally to rats 1 hour after carrageenan injections.
To investigate further the role of SSAO inhibition in the inflammatory response, studies were carried out to assess the effect of SSAO inhibition on prostaglandin E2 (PGE2) levels. Animals were divided into four therapeutic groups of eight rats each. […] The fourth group received 3 mg/kg of dexamethasone, i.p. 1 hour before paw inflammation. Three hours after carrageenan injection, rats were asphyxiated with CO2 and their hind paws removed. The paws were lacerated with a scalpel, suspended off the bottom of a polypropylene 1.5 ml tube with a micropipette tip and centrifuged to express the inflammatory fluid. The volume collected from each paw was determined and the fluid was analyzed by ELISA for PGE2 production using a commercial kit (R&D Systems, Minneapolis, Minn.) according to the manufacturer's instructions. […] Data were analyzed with GraphPad Prism software (San Diego, Calif.) by Dunnett's test following analysis of variance.

[3] = tyramine substrate, no pre-incubation, read-out: MAO-A Inhibitory Activity IC50
[4] = ip, single i.p. injection, read-out: LD50 intraperitoneal
[5] = iv, single i.v. injection, read-out: LD50 intravenous

Row | SMILES | Specificity for SSAO vs. MAO-A (recombinant human MAO-A) | IC50 (recombinant human MAO-A; [3]) [nM] | LD50 at 7 days [1, 4] [mg/kg] | LD50 at 7 days [1, 5] [mg/kg] | acute toxicity effects observed (C57B1/6 female mice) | dose causing convulsions and labored breathing (C57B1/6 female mice) | paw swelling [2] | IC50 (recombinant human MAO-A) [nM] | PGE2 production in paw exudate ([2]; 50 mg/kg oral 1 hour prior to carrageenan, 3 hours after injection, equivalent to dexamethasone) | paw volume ([2]; 50 mg/kg oral 1 hour prior to carrageenan, FIG. 11A)
1 | Cl.NNC/C(=C/F)c1ccccc1 [Example 10, (E)-1-fluoro-2-phenyl-3-hydrazinopropene Hydrochloride] | 43 | 2800 | 250 | > 100 | only tremor | greater than 250 mg/kg |  |  |  | 
2 | C=C(CNN)c1ccc(F)cc1.Cl [Example 8, N-[2-(4′-fluorophenyl)-allyl]-hydrazine Hydrochloride] | 69 | 2200 | 350 | > 100 | only tremor | greater than 350 mg/kg | clearly and significantly reduced |  |  | 
3 | C=C(CNN)c1ccccc1 [Example 2, Hydrochloride] | 6,400 |  |  |  |  |  | clearly and significantly reduced | 225000 | significantly reduce | reduces
